Data on 21 molecules can be found in US20160002204A1 (Board of Regents, The University of Texas System, priority 2014, published 2016).

Molecules are shown by their SMILES.

In one test the test system is A549 cells. Nature of the test: A549 proliferation (viability) assay, Cell Titer Fluor, 72 hours. Format: cell-based. Particulars: Homo sapiens. The procedure, abridged: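 Fluorescence read-out (Cell Titer Fluor, 30 min at 37 °C after reagent) after 72 h compound exposure of A549 cells; EC50 by four-parameter logistic curve fit. Cells: 1000/well, RPMI 1640 + 10% dialyzed FBS, 0.5% DMSO final.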

For test [1], the target named is T1, GLS1 (purified recombinant human GAC) (Homo sapiens, UniProt O94925).
T1 sequence (O94925 55-598 isoform O94925-3 limits assumed): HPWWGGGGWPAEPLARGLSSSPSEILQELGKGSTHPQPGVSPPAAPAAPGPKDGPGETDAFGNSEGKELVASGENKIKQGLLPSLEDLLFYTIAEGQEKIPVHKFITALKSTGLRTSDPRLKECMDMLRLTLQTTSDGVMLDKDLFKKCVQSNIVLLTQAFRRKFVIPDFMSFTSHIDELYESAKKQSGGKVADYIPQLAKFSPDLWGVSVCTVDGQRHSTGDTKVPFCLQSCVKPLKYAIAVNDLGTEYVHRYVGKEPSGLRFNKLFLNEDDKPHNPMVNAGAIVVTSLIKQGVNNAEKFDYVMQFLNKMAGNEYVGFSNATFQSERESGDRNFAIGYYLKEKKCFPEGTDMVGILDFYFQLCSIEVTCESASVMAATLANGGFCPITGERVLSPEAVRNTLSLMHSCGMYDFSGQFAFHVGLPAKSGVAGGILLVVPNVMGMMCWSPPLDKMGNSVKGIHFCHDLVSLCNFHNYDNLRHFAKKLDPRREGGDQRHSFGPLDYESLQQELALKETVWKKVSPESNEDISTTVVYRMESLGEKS
Nature of the test: GLS1 enzymatic activity assay (dual-coupled, Amplex UltraRed/resorufin). The format is biochemical. The procedure, abridged: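 In this coupled fluorometric format, phosphate-activated GAC (2 nM, 50 mM phosphate) is pre-exposed to compound for 10 min before 1 mM glutamine addition. Product is tracked as resorufin (530/590 nm) over time or at 20 min, and potency is derived by logistic fitting.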

`O=C(Cc1cccc(OC(F)(F)F)c1)Nc1ccc(CCCCn2ccc(NC(=O)NC3CCCCC3)nc2=O)nn1` [Example 107, N-[6-(4-{4-[(cyclohexylcarbamoyl)amino]-2-oxo-1,2-dihydropyrimidin-1-yl}butyl)pyridazin-3-yl]-2-[3-(trifluoromethoxy)phenyl]acetamide]: in the test on A549 cells, the EC50 – broadly, the concentration giving half of the maximal effect – lay within 500 to 5000 nM. Besides, the IC50 (commonly the concentration at which inhibition is half-maximal) in test [1] is less than 100 nM.

`O=C(CC1CCCCC1)Nc1ccn(CCCCn2cc(C(=O)NCc3cc(Cl)ccc3F)nn2)c(=O)c1` [Example 181, N-[(5-chloro-2-fluorophenyl)methyl]-1-{4-[4-(2-cyclohexylacetamido)-2-oxo-1,2-dihydropyridin-1-yl]butyl}-1H-1,2,3-triazole-4-carboxamide] showed an EC50 in the test with A549 cells of 100 to 500 nM. In addition, the half-inhibitory concentration (IC50) in test [1] was less than 100 nM.

For the molecule `COC(=O)Nc1ccn(CCCCc2ccc(NC(=O)Cc3ccccc3)nn2)c(=O)n1` [Example 93, methyl N-(2-oxo-1-{4-[6-(2-phenylacetamido)pyridazin-3-yl]butyl}-1,2-dihydropyrimidin-4-yl)carbamate], the EC50 in the test on A549 cells is 500 to 5000 nM. Also, the IC50 in test [1] was 100 to 500 nM.

`O=C(Cc1ccccc1)Nc1ccn(CC(F)CCn2cc(C(=O)NCc3cc(C(F)(F)F)ccn3)nn2)c(=O)c1` (stereo not drawn) [Example 161, 1-{3-fluoro-4-[2-oxo-4-(2-phenylacetamido)-1,2-dihydropyridin-1-yl]butyl}-N-{[4-(trifluoromethyl)pyridin-2-yl]methyl}-1H-1,2,3-triazole-4-carboxamide]: in the test with A549 cells, the EC50 fell in the range of 100 to 500 nM. For the same molecule, the concentration for half-maximal inhibition (IC50) in test [1] is less than 100 nM.

In the test with A549 cells, `CC(C)OC(=O)Nc1ccn(CCC(F)Cn2cc(C(=O)NCc3cccc(OC(F)(F)F)c3)nn2)c(=O)n1` (stereo not drawn) [Example 384, propan-2-yl N-(1-{3-fluoro-4-[4-({[3-(trifluoromethoxy)phenyl]methyl}carbamoyl)-1H-1,2,3-triazol-1-yl]butyl}-2-oxo-1,2-dihydro-pyrimidin-4-yl)carbamate] showed a concentration giving a half-maximal response (EC50) of 100 to 500 nM. Besides, in test [1], the half-inhibitory concentration (IC50) was less than 100 nM.

Molecule `CC(=O)Nc1ccn(CCCCn2cc(C(=O)NCc3cccc(OC(F)(F)F)c3)nn2)c(=O)c1` [Example 50, 1-[4-(4-acetamido-2-oxo-1,2-dihydropyridin-1-yl)butyl]-N-{[3-(trifluoromethoxy)phenyl]methyl}-1H-1,2,3-triazole-4-carboxamide] returned a concentration giving a half-maximal response (EC50) in the test on A549 cells of more than 5000 nM. For the same molecule, the IC50 in test [1] was 500 to 5000 nM.

In turn, `CC(C)(O)c1ccc(CNC(=O)c2cn(CC(F)CCn3ccc(NC(=O)CC4CCCCC4)c(F)c3=O)nn2)cn1` (stereo not drawn) [Example 268, 1-{4-[4-(2-cyclohexylacetamido)-3-fluoro-2-oxo-1,2-dihydropyridin-1-yl]-2-fluorobutyl}-N-{[6-(2-hydroxypropan-2-yl)pyridin-3-yl]methyl}-1H-1,2,3-triazole-4-carboxamide] showed an EC50 in the test on A549 cells of 100 to 500 nM. For the same molecule, the concentration for half-maximal inhibition (IC50) in test [1] is less than 100 nM.

Consider `O=C(Cc1ccccc1)Nc1ccc(CCCCn2ccc(NC(=O)NC3CCCCC3)nc2=O)nn1` [Example 88, N-[6-(4-{4-[(cyclohexylcarbamoyl)amino]-2-oxo-1,2-dihydropyrimidin-1-yl}butyl)pyridazin-3-yl]-2-phenylacetamide], for which the EC50 in the test on A549 cells lay in the range of 500 to 5000 nM. Besides, in test [1], the concentration for half-maximal inhibition (IC50) is 100 to 500 nM.

In turn, `O=C(CN1CCCC(F)(F)C1)Nc1ccn(CCC(F)Cn2cc(C(=O)NCc3cccc(OC(F)(F)F)c3)nn2)c(=O)c1F` (stereo not drawn) [Example 295, 1-(4-{4-[2-(3,3-difluoropiperidin-1-yl)acetamido]-3-fluoro-2-oxo-1,2-dihydropyridin-1-yl}-2-fluorobutyl)-N-{[3-(trifluoromethoxy)phenyl]methyl}-1H-1,2,3-triazole-4-carboxamide] came in with an EC50 in the test on A549 cells of less than 100 nM. The IC50 in test [1] was less than 100 nM.

In turn, `CC(C)(C)OC(=O)N1CCC(CC(=O)Nc2ccn(CCC(F)Cn3cc(C(=O)NCc4cccc(OC(F)(F)F)c4)nn3)c(=O)c2)CC1` (stereo not drawn) [Example 219, tert-butyl 4-{[(1-{3-fluoro-4-[4-({[3-(trifluoromethoxy)phenyl]methyl}carbamoyl)-1H-1,2,3-triazol-1-yl]butyl}-2-oxo-1,2-dihydropyridin-4-yl)carbamoyl]methyl}piperidine-1-carboxylate] returned a 50% effective concentration (EC50) in the test with A549 cells of less than 100 nM. In test [1], the half-maximal inhibitory concentration (IC50) is less than 100 nM.

In turn, `O=C(Cc1ccccc1)Nc1ccn(CCC(F)Cn2cc(C(=O)NCc3cc(C(F)(F)F)ccn3)nn2)c(=O)c1F` (stereo not drawn) [Example 323, 1-{2-fluoro-4-[3-fluoro-2-oxo-4-(2-phenylacetamido)-1,2-dihydropyridin-1-yl]butyl}-N-{[4-(trifluoromethyl)pyridin-2-yl]methyl}-1H-1,2,3-triazole-4-carboxamide] returned an EC50 in the test with A549 cells of less than 100 nM. In test [1], the IC50 is less than 100 nM.

Take `O=C(CC1CCC1)Nc1ccn(CCCCn2cc(C(=O)NCc3cccc(OC(F)(F)F)c3)nn2)c(=O)c1` [Example 201, 1-{4-[4-(2-cyclobutylacetamido)-2-oxo-1,2-dihydropyridin-1-yl]butyl}-N-{[3-(trifluoromethoxy)phenyl]methyl}-1H-1,2,3-triazole-4-carboxamide]: in the test on A549 cells, the EC50 lay in the range of 100 to 500 nM. The half-maximal inhibitory concentration (IC50) in test [1] was less than 100 nM.

`O=C(Cc1ccccc1)Nc1ccc(CCCCn2ccc(NC(=O)Oc3ccccc3)nc2=O)nn1` [Example 97, phenyl N-(2-oxo-1-{4-[6-(2-phenylacetamido)pyridazin-3-yl]butyl}-1,2-dihydropyrimidin-4-yl)carbamate] registered an EC50 in the test with A549 cells of more than 5000 nM. The IC50 in test [1] was 100 to 500 nM.

Consider `COc1ccc(CNC(=O)c2cn(CCCCn3ccc(NC(=O)Cc4cccc(OC(F)(F)F)c4)cc3=O)nn2)cc1` [Example 67, N-[(4-methoxyphenyl)methyl]-1-[4-(2-oxo-4-{2-[3-(trifluoromethoxy)phenyl]acetamido}-1,2-dihydropyridin-1-yl)butyl]-1H-1,2,3-triazole-4-carboxamide], for which the EC50 in the test with A549 cells was 500 to 5000 nM. For the same molecule, the half-maximal inhibitory concentration (IC50) in test [1] was less than 100 nM.

Regarding `CC(C)COC(=O)Nc1ccn(CCC(F)Cn2cc(C(=O)NCc3cccc(OC(F)(F)F)c3)nn2)c(=O)n1` (stereo not drawn) [Example 471, 2-methylpropyl N-(1-{3-fluoro-4-[4-({[3-(trifluoro-methoxy)phenyl]methyl}carbamoyl)-1H-1,2,3-triazol-1-yl]butyl}-2-oxo-1,2-dihydropyrimidin-4-yl)carbamate], in the test with A549 cells, the concentration for a half-maximal effect (EC50) is less than 100 nM. Further, the concentration for half-maximal inhibition (IC50) in test [1] is less than 100 nM.

In the test with A549 cells, `CC(=O)N1CCN(CC(=O)Nc2ccn(CCC(F)Cn3cc(C(=O)NCc4cccc(OC(F)(F)F)c4)nn3)c(=O)c2)CC1` (stereo not drawn) [Example 229, 1-(4-{4-[2-(4-acetylpiperazin-1-yl)acetamido]-2-oxo-1,2-dihydropyridin-1-yl}-2-fluorobutyl)-N-{[3-(trifluoromethoxy)phenyl]methyl}-1H-1,2,3-triazole-4-carboxamide] returned a concentration for a half-maximal effect (EC50) of 500 to 5000 nM. Also, the concentration for half-maximal inhibition (IC50) in test [1] fell in the range of 100 to 500 nM.

As for `CC(C)C(=O)Nc1ccn(CCCCn2cc(C(=O)NCc3cccc(OC(F)(F)F)c3)nn2)c(=O)c1` [Example 54, 1-{4-[4-(2-methylpropanamido)-2-oxo-1,2-dihydropyridin-1-yl]butyl}-N-{[3-(trifluoromethoxy)phenyl]methyl}-1H-1,2,3-triazole-4-carboxamide], the concentration for a half-maximal effect (EC50) in the test on A549 cells is 500 to 5000 nM. The IC50 in test [1] was in the range of 100 to 500 nM.

With `CNC(=O)c1ccn(CCCCn2cc(C(=O)NCc3cccc(OC(F)(F)F)c3)nn2)c(=O)c1` [Example 58, N-methyl-2-oxo-1-{4-[4-({[3-(trifluoromethoxy)phenyl]methyl}carbamoyl)-1H-1,2,3-triazol-1-yl]butyl}-1,2-dihydropyridine-4-carboxamide], the half-maximal effective concentration (EC50) with A549 cells was more than 5000 nM. In addition, in test [1], the IC50 is 500 to 5000 nM.

The molecule `O=C(Cn1ccccc1=O)Nc1ccn(CCCCn2cc(C(=O)NCc3cccc(C(F)(F)F)c3)nn2)c(=O)c1` [Example 157, 1-(4-{2-oxo-4-[2-(2-oxo-1,2-dihydropyridin-1-yl)acetamido]-1,2-dihydropyridin-1-yl}butyl)-N-{[3-(trifluoromethyl)phenyl]methyl}-1H-1,2,3-triazole-4-carboxamide] gave a 50% effective concentration (EC50) in the test with A549 cells of more than 5000 nM. For the same molecule, the IC50 in test [1] is 500 to 5000 nM.

For `CC(C)(C)OC(=O)N1CCN(CC(=O)Nc2ccn(CCC(F)Cn3cc(C(=O)NCC4CCCC4)nn3)c(=O)c2)CC1` (stereo not drawn) [Example 405, tert-butyl 4-({[1-(4-{4-[(cyclopentylmethyl)carbamoyl]-1H-1,2,3-triazol-1-yl}-3-fluorobutyl)-2-oxo-1,2-dihydropyridin-4-yl]carbamoyl}methyl)piperazine-1-carboxylate], the EC50 in the test on A549 cells lay in the range of 100 to 500 nM. Moreover, in test [1], the IC50 lay within 100 to 500 nM.

`COC(=O)C1CCN(CC(=O)Nc2ccn(CCC(F)Cn3cc(C(=O)NCc4cccc(OC(F)(F)F)c4)nn3)c(=O)c2)CC1` (stereo not drawn) [Example 273, methyl 1-{[(1-{3-fluoro-4-[4-({[3-(trifluoromethoxy)phenyl]methyl}carbamoyl)-1H-1,2,3-triazol-1-yl]butyl}-2-oxo-1,2-dihydropyridin-4-yl)carbamoyl]methyl}piperidine-4-carboxylate] had an EC50 with A549 cells of 500 to 5000 nM. Further, in test [1], the 50% inhibitory concentration (IC50) was less than 100 nM.
